Test results as given in US6897218B2, “Nitric oxide donors based on metallic centers” (Consiglio Nazionale Delle Ricerche, priority 2001, dated 2005).

What was measured:
[1] = tested on: endothelial cells of the microcirculatory system; experiment: endothelial cell migration, Boyden chambers; format: cell-based; conditions: compared with other NO donors
Source text: The pharmacological activity of the compounds of the invention has been evaluated by their relaxation induction effect in vascular preparations (rabbit aorta rings) precontracted with noradrenaline (Amerini et al., J. Cardiovasc. Pharmacol., 28: 82-88, […]). The endothelio-protective and pro-angiogenetic effects of the compounds have also been evaluated in a study on the proliferation and migration of endothelial cells of the microcirculatory system (M. Ziche et al., J. Clin. Invest. 94: 2036-2044, 1994).
The endothelio-protective and pro-angiogenetic effect of the compounds was also evaluated by measuring the growth promotion and migration effect on endothelial cells of the microcirculatory system compared with other NO donors. Cell migration was evaluated using Boyden chambers, and proliferation as the total number of cells after 48 hours of exposure to the substances under study (M. Ziche et al., J. Clin. Invest. 94: 2036-2044, 1994).

[2] = tested on: rabbit aorta precontracted with noradrenaline; experiment: relaxation of rabbit aorta precontracted with noradrenaline

SMILES: NCCCNCCCCN(CCCN)/[N+]([O-])=N/O [SpermineNONOate, spermineNONOate]
- effect on endothelial cell migration, result in words [1]: little active and does not give the maximum effect
- vascular relaxation, result in words [2]: much less powerful than piperazineNONOate complexes
